The values that follow come from patent publication US20230021275A1, “Application of Nanosulfur in Tomato Fusarium Wilt Control” (Jiangnan University, priority 2021, published 2023).

Structures are written as SMILES.

The subject of test [1] is Fusarium oxysporum f sp. Lycopersici. Put plainly: Foliar application to tomatoes grown in infected soil (tomato fusarium wilt control). The format is in vivo. Conditions: foliar spraying 100 mg/L; for Fresh weight of above-ground part / Fresh weight of underground part / Incidence: 10 mL/plant, 6th and 8th week, 10th week. The text has this:
There were 5 levels of disease severity of tomatoes: 0: symptomless; 1: mildly stunted; 2: stunted; 3: leaves wilted and yellowed; and 4: dead. […] The highest disease severity level of tomatoes was Level 4. The total number of tomato plants in the treated group was 6. Test of biomass of above-ground part and underground part: Tomatoes were sampled destructively. The above-ground part and the underground part of the tomato were washed with ultrapure water three times. The above-ground part and the underground part of the tomato were dried up with filter paper. The above-ground part and the underground part were weighed using a balance. The obtained weights were respectively the biomass of the above-ground part and the underground part of the tomato. (1) Pathogenic bacteria (Fusarium oxysporum f sp. Lycopersici, the pathogen of tomato fusarium wilt) were added to dry soil at a concentration of 1×10^6 spores/g to obtain infected soil. (2) Tomato seeds were sowed in the infected soil. […] The cultivation was continued. In the meanwhile, tomato seeds were sowed in soil not infected with pathogenic bacteria, and cultivated normally with no sulfur solution applied, to obtain a healthy group. The cultivation of the tomatoes was continued until the 10th week. The tomatoes were examined for the disease severity. The tomatoes were sampled destructively. The fresh weights of the above-ground part and the underground part of the tomatoes were measured. The test results are as follows: (1) Pathogenic bacteria (F. oxysporum, the pathogen of tomato fusarium wilt) were added to dry soil at a concentration of 1×10^6 spores/g to obtain infected soil. (2) Tomato seeds were sowed in the infected soil. […] The cultivation was continued. In the meanwhile, tomato plants with no fertilizer applied were taken as the foliar disease group. When the tomatoes grew to the 10th week, the tomatoes were examined for the disease severity. The tomatoes were sampled destructively. The fresh weights of the above-ground part and the underground part of the tomatoes were measured.

For a further test, the system named is F. oxysporum. Put plainly: Growth of pathogen colonies on PDA plates. Format: cell-based. The conditions noted are these: 100 mg/L. The text has this:
This may be because the nanosulfur could induce the systemic acquired resistance of plants and the control effect of the nanosulfur on the tomato fusarium wilt was better than the direct bactericidal effect thereof.

With `Cc1cc(O)no1` [Hymexazol, hymexazol], in test [1], the “Effect on fresh weights of above-ground and underground part (biomass) compared with the disease group” value is listed as “significantly increased”; the “Effect on the incidence of tomato fusarium wilt compared with the disease group” value was “significantly reduced”; the “Fresh weight of above-ground part” value worked out at 6.9 ± 0.9c g; the “Fresh weight of underground part” value was found to be 1.8 ± 0.5b g. In test [1], the Incidence worked out at 0.42 ± 0.08cd. Besides, the “Antibacterial effect relative to that of the 30-SNPs” value in the test on F. oxysporum (6 days) came to 3.05 times. For the same compound, the “Reduction of the diameter of the pathogenic bacteria colonies” value in the test with F. oxysporum (6 days of exposure, compared with the foliar disease group) was found to be 34.5%.

For `O=S(=O)([O-])[O-].[Na+].[Na+]` [Sodium sulfate, sodium sulfate], in test [1], the “Effect on fresh weights of above-ground and underground part (biomass) compared with the disease group” value is listed as “no significant effects”; the “Fresh weight of above-ground part” value was 5.5 ± 0.7 g·days; the “Fresh weight of underground part” value is reported as 1.7 ± 0.2b g; the Incidence came out at 0.64 ± 0.10a.
